The source of these data is patent publication US7569572B2, “Pyrazolo[4,3-D]pyrimidines” (Pfizer Inc, priority 2004, dated 2009).

Where a name gives a salt, the structure may show the parent alone.

This assay has as its target T1, human platelet PDE5 (Homo sapiens, UniProt O76074).
T1 construct: utilizes PDE5 isolated from human platelets; from tissue; host or cells: human platelets
The assay can be described thus: Method A: PDE-5 Inhibition Scintillation Proximity Assay (SPA) - Human Platelet. It is filed as biochemical. Conditions: cGMP substrate 500 nM, PDE5 isolated from human platelets. The text has this: Method A: PDE-5 Inhibition Scintillation Proximity Assay (SPA)—Human Platelet
The assay measures the inhibition of human platelet PDE5 enzyme activity by a test compound in an in vitro assay that utilizes PDE5 isolated from human platelets. The PDE5 enzyme can be isolated from platelets essentially by a modification of the method of Thompson, W J et al.; Biochemistry 18(23), 5228-5237, 1979, as described by Ballard S A et al.; J. Urology 159(6), 2164-2171, 1998. PDE5 catalyzes the hydrolysis of [^3H]cGMP to the 5′ nucleotide [^3H]GMP. [^3H]GMP binds to yttrium silicate SPA beads and is detected by scintillation counting. […] The inhibition of enzyme activity is calculated relative to total PDE5 activity of uninhibited controls.
PDE5 IC50 Assay: 96-Well Microtiter Plate Format
Buffer A: 20 mM Tris-HCl, 5 mM MgCl2, pH 7.4
Buffer B: 2 mg/ml BSA in Buffer A (enzyme buffer)
cGMP substrate: Final concentration of 500 nM in assay
The amount of ^3H-labeled substrate added depends upon the specific activity of [^3H]cGMP, and it is diluted with a 10 mM stock of cold cGMP in Buffer A for a final substrate concentration of 500 nM in the assay.
PDE enzyme: Prepared in Buffer B. The dilution factor is determined by enzyme activity.
SPA beads: 20 mg/ml suspension prepared in dH2O.
Stocks of standard and test compounds are prepared at 5 mM in 100% DMSO. Compounds are serially diluted in separate dilution plates using a 10-point ½ log dilution format. 2 μl of the compound dilutions are added in duplicate to the wells of the assay plate; 2 μl of 100% DMSO are added to designated control wells. 25 μl of Buffer A are added to all wells. 25 μl of Buffer B are added to the negative control wells, and 25 μl of enzyme are added to the remaining wells. 50 μl of substrate are added to each well. Plates are sealed and incubated for 60 minutes on a plate shaker at 30 C. 50 μl of SPA beads are added to stop the reaction. The plates are again sealed and shaken for 15 minutes to allow the beads to bind the GMP product. The beads are allowed to settle for 30 minutes and then read on a NXT TopCount. Data is analyzed with the ECADA application. In this analysis, % inhibition is calculated: (mean maximum−compound value/(mean maximum−mean minimum)×100. IC50s are determined from sigmoid dose-response curves of enzyme activity vs compound concentration.
A general note: Scintillation proximity formats need no separation of bound from free tracer.
As for `CCOCCn1nc(CNCCOC)c2nc(N(C)C)nc(Nc3ccncn3)c21` [Example 33, 1-(2-ethoxyethyl)-3-[(2-methoxyethylamino)methyl]-N^5,N^5-dimethyl-N^7-pyrimidin-4-yl-1H-pyrazolo[4,3-d]pyrimidine-5,7-diamine], the IC50 is greater than 100 nM.
The same measure for `CCNCc1nn(CCOCC)c2c(Nc3cc(C)ccn3)nc(N(C)C)nc12` [Example 31, 1-(2-ethoxyethyl)-3-(ethylaminomethyl)-N^5,N^5-dimethyl-N^7-(4-methylpyridin-2-yl)-1H-pyrazolo[4,3-d]pyrimidine-5,7-diamine]: 3.4 nM.
The same measure for `CCOCCn1nc(CN2CCN(C)CC2)c2nc(N(C)C)nc(Nc3cc(C)ccn3)c21` [Example 18, 1-(2-Ethoxyethyl)-N^5,N^5-dimethyl-3-[(4-methylpiperazin-1-yl)methyl]-N^7-(4-methylpyridin-2-yl)-1H-pyrazolo[4,3-d]pyrimidine-5,7-diamine hydrochloride]: 2.3 nM.
Then `CCOCCn1nc(CNC(=O)CC)c2nc(N(C)C)nc(Nc3cc(C)ccn3)c21` [Example 9, N-[5-dimethylamino-1-(2-ethoxyethyl)-7-(4-methylpyridin-2-ylamino)-1H-pyrazolo[4,3-d]pyrimidin-3-ylmethyl]propionamide], with 0.33 nM.
`CCOCCn1nc(CNC)c2nc(N(C)C)nc(Nc3cnccn3)c21` [Example 17, 1-(2-ethoxyethyl)-N^5,N^5-dimethyl-3-(methylaminomethyl)-N^7-(pyrazin-2-yl)-1H-pyrazolo[4,3-d]pyrimidine-5,7-diamine hydrochloride]: the IC50 is greater than 100 nM.
Then `CCNCc1nn(CCOCC)c2c(Nc3ccc(C)cn3)nc(N(C)C)nc12` [Example 26], with 3.4 nM.
As to `CCOCCn1nc(CNC)c2nc(N(C)CCO)nc(Nc3cc(C)ccn3)c21` [Example 36, 2-{[1-(2-ethoxyethyl)-3-(methylaminomethyl)-7-(4-methylpyridin-2-ylamino)-1H-pyrazolo[4,3-d]pyrimidin-5-yl]methylamino}ethanol hydrochloride], the IC50 is 188 nM.
Regarding `CCOCCn1nc(CN(C)C)c2nc(N(C)C)nc(Nc3cc(C)ccn3)c21` [Example 28], the IC50 worked out at 6.9 nM.
Then `CCOCCn1nc(CN2CCC[C@@H]2COC)c2nc(N(C)C)nc(Nc3cc(C)ccn3)c21` [Example 19], with 4.3 nM; and `CCOCCn1nc(CNCCOC)c2nc(N(C)C)nc(Nc3cc(C)ccn3)c21` [Example 29], with 3.3 nM; and `CCNc1nc(Nc2cc(C)ccn2)c2c(n1)c(CNC(=O)CO)nn2CCOCC` [Example 5], with 0.58 nM.
Then `CCOCCn1nc(CNC(=O)CN(C)C)c2nc(N(C)C)nc(Nc3cc(C)ccn3)c21` [Example 1, 2-Dimethylamino-N-[5-dimethylamino-1-(2-ethoxyethyl)-7-(4-methylpyridin-2-ylamino)-1H-pyrazolo[4,3-d]pyrimidin-3-ylmethyl]acetamide], with 1.12 nM.
Then `CCNc1nc(Nc2cc(C)ccn2)c2c(n1)c(CN(C)C(C)=O)nn2CCOCC` [Example 15, N-[1-(2-ethoxyethyl)-5-ethylamino-7-(4-methylpyridin-2-ylamino)-1H-pyrazolo[4,3-d]pyrimidin-3-ylmethyl]-N-methylacetamide], with 0.48 nM; and `CCOCCn1nc(CN2CC[C@@H](OC)C2)c2nc(N(C)C)nc(Nc3cc(C)ccn3)c21` [Example 22], with 3.2 nM.
With `CCOCCn1nc(CN(C)C(C)=O)c2nc(N(C)C)nc(Nc3cc(C)ccn3)c21` [Example 13], the half-maximal inhibitory concentration (IC50) turned out to be 0.4 nM.
Then `CCOCCn1nc(CNS(C)(=O)=O)c2nc(N(C)C)nc(Nc3cc(C)ccn3)c21` [Example 2, N-[5-dimethylamino-1-(2-ethoxyethyl)-7-(4-methylpyridin-2-ylamino)-1H-pyrazolo[4,3-d]pyrimidin-3-ylmethyl]methanesulfonamide], with 1.25 nM; and `CCOCCn1nc(CNC(=O)CC)c2nc(NC)nc(Nc3cc(C)ccn3)c21` [Example 10], with 2.5 nM; and `CCOCCn1nc(CNC(C)=O)c2nc(N(C)C)nc(Nc3cc(C)ccn3)c21` [Example 6, N-[5-dimethylamino-1-(2-ethoxyethyl)-7-(4-methylpyridin-2-ylamino)-1H-pyrazolo[4,3-d]pyrimidin-3-ylmethyl]acetamide], with 0.39 nM.
Compound `CCOCCn1nc(CN2CCC[C@H]2COC)c2nc(N(C)C)nc(Nc3cc(C)ccn3)c21` [Example 20] had a concentration for half-maximal inhibition (IC50) of 2.1 nM.
Then `CCOCCn1nc(CN(CC)CC)c2nc(N(C)C)nc(Nc3ccncn3)c21` [Example 34, 3-(Diethylaminomethyl)-1-(2-ethoxyethyl)-N^5,N^5-dimethyl-N^7-(pyrimidin-4-yl)-1H-pyrazolo[4,3-d]pyrimidine-5,7-diamine], with 23.6 nM; and `CCOCCn1nc(CNC)c2nc(N(C)C)nc(Nc3ccncn3)c21` [Example 35, 1-(2-ethoxyethyl)-N^5,N^5-dimethyl-3-(methylaminomethyl)-N^7-pyrimidin-4-yl-1H-pyrazolo[4,3-d]pyrimidine-5,7-diamine hydrochloride], with greater than 100 nM.
On to `CCOCCn1nc(CN(C)C(C)=O)c2nc(NC)nc(Nc3cc(C)ccn3)c21` [Example 14], for which the IC50 worked out at 5.5 nM.
`CCOCCn1nc(CN2CCCC2)c2nc(N(C)C)nc(Nc3cc(C)ccn3)c21` [Example 25] displayed an IC50 of 5.2 nM.
Then `CCOCCn1nc(CN2CCNCC2)c2nc(N(C)C)nc(Nc3cc(C)ccn3)c21` [Example 40, 1-(2-ethoxyethyl)-N^5,N^5-dimethyl-N^7-(4-methylpyridin-2-yl)-3-(piperazin-1-ylmethyl)-1H-pyrazolo[4,3-d]pyrimidine-5,7-diamine hydrochloride], with 5.8 nM; and `CCOCCn1nc(CNC(=O)CO)c2nc(N(C)C)nc(Nc3cc(C)ccn3)c21` [Example 4, N-[5-dimethylamino-1-(2-ethoxyethyl)-7-(4-methylpyridin-2-ylamino)-1H-pyrazolo[4,3-d]pyrimidin-3-ylmethyl]-2-hydroxyacetamide], with 0.77 nM; and `CCOCCn1nc(CNC)c2nc(N(C)C)nc(Nc3cc(C)ccn3)c21` [Example 12], with 4.5 nM.
Then `CCNc1nc(Nc2cc(C)ccn2)c2c(n1)c(CNC(=O)CC)nn2CCOCC` [Example 11, N-[1-(2-ethoxyethyl)-5-ethylamino-7-(4-methylpyridin-2-ylamino)-1H-pyrazolo[4,3-d]pyrimidin-3-ylmethyl]propionamide], with 0.53 nM; and `CCNCc1nn(CCOCC)c2c(Nc3ccncn3)nc(N(C)C)nc12` [Example 32, 1-(2-ethoxyethyl)-3-(ethylaminomethyl)-N^5,N^5-dimethyl-N^7-(pyrimidin-4-yl)-1H-pyrazolo[4,3-d]pyrimidine-5,7-diamine], with greater than 100 nM; and `CCOCCn1nc(CN2CCOCC2)c2nc(N(C)C)nc(Nc3cc(C)ccn3)c21` [Example 30, 1-(2-ethoxyethyl)-N^5,N^5-dimethyl-3-[(4-morpholino)methyl]-N^7-(4-methylpyridin-2-yl)-1H-pyrazolo[4,3-d]pyrimidine-5,7-diamine], with 1.06 nM.
The same measure for `CCOCCn1nc(CNC(C)=O)c2nc(NC)nc(Nc3cc(C)ccn3)c21` [Example 7]: 9 nM.
For the compound `CCNc1nc(Nc2cc(C)ccn2)c2c(n1)c(CNS(C)(=O)=O)nn2CCOCC` [Example 3], half-maximal inhibition (IC50) was put at 1.1 nM.

As usually defined, the IC50 is the midpoint of a concentration-inhibition curve.
